According to patent US20040223977A1, “Fusion peptide HIV vaccines” (City of Hope, priority 2003, published 2004):
Square brackets hold non-standard residues; d marks the D form. Peptide text beside a SMILES is read from it. Cha = N[C@@H](CC1CCCCC1)C(=O)O

Assays:
[1] = tested on: naïve HLA A2/K^b splenocytes; test: Lymphocyte proliferation assay (3H-thymidine incorporation); assay type: cell-based, transgenic HLA A2/K^b mice; details: 48 hours culture, up to 1.6 μM ODN
Method: A naïve transgenic A2/K^b spleen cell suspension was prepared as described for immunized splenocytes in Example 4. Following the removal of erythrocytes using red cell lysis buffer (0.15 M NH4Cl, 1 mM KHCO3, 0.1 mM Na2EDTA in distilled H2O) and subsequent washing, the concentration was adjusted to 4×10^6 cells/ml in complete in vitro stimulation (IVS) medium. One hundred microliters of splenocyte suspension was plated onto 96 well U-bottomed plate along with 100 μl of serially diluted CpG DNA in serum-free IVS medium. Concanavalin A (Sigma, St. Louis, Mo.) at a concentration of 5 μg/ml and unstimulated splenocytes were used as positive and negative controls respectively. […] Levels of TdR uptake were determined by liquid scintillation using a TriLux counter (Wallac, […]). Results were expressed as a stimulation index (SI) compared to unstimulated splenocytes.
In vitro analysis of the proliferative effect of two synthetic ODNs was conducted using naïve HLA A2/K^b splenocytes. […] Proliferative responses were determined by ^3H-thymidine incorporation using naïve transgenic A2/K^b splenocytes cultured with immunostimulatory ODN 1826 (SEQ ID NO:5; black bar) or control ODN sequence 1984 (SEQ ID NO:6; white bar) for 48 hours. […]

[2] = tested on: IV9 peptide-loaded T2 cells
[3] = tested on: T2 target cells pulsed with SEQ ID NO:10; test: Chromium release assay after immunization with SEQ ID NO:11, T2 targets pulsed with SEQ ID NO:10; assay type: in vivo, HLA A2.1/Kb transgenic mice

**Q.** Which “proliferative response (stimulation index)” value [1] does the source give for “5′ TCCAGGACTTCTCTCAGGTT 3′ (chemistry not given here) [ODN 1984]” here?
**A.** little or no proliferation

**Q.** With 5′ TCCATGACGTTCCTGACGTT 3′ [ODN 1826] as the compound, how does the “proliferative response (stimulation index)” value [1] read?
**A.** potent generalized proliferative response

**Q.** What about the “amount of CpG DNA per dose capable of augmenting the CTL response” value ([2]; co-administered with fusion peptide (50 nmoles PADRE-IV9 elsewhere in the source), s.c., saline) of the same compound?
**A.** ≤ 1 µg

**Q.** And the “plateau of CTL response” value ([2]; with 50 nmoles PADRE-IV9, E:T of 6, up to 25 μg CpG DNA)?
**A.** no clear plateau

**Q.** With CC[C@H](C)[C@H](NC(=O)[C@H](C)NC(=O)[C@H](C)NC(=O)[C@H](C)NC(=O)[C@H](CCCCN)NC(=O)[C@H](CC(C)C)NC(=O)[C@@H](NC(=O)[C@H](Cc1c[nH]c2ccccc12)NC(=O)[C@H](C)NC(=O)[C@H](C)NC(=O)[C@@H](NC(=O)[C@H](CC1CCCCC1)NC(=O)[C@H](CCCCN)NC(=O)[C@H](C)N)C(C)C)[C@@H](C)O)C(=O)N[C@@H](CC(C)C)C(=O)N[C@@H](CCCCN)C(=O)N[C@@H](CCC(=O)O)C(=O)N1CCC[C@H]1C(=O)N[C@H](C(=O)N[C@@H](Cc1c[nH]cn1)C(=O)NCC(=O)N[C@H](C(=O)O)C(C)C)C(C)C [PADRE-IV9, AKXVAAWTLKAAAILKEPVHGV] (H-AK[Cha]VAAWTLKAAAILKEPVHGV-OH) as the compound, how does the cytotoxicity ([2]; between 10-15 nmoles of peptide, E:T ratio of 25) read?
**A.** approximately 15%

**Q.** Which “specific recognition (non-specific recognition subtracted)” value ([3]; 25 nmoles with 25 μg ODN 1826 s.c., E:T 4) does the source give for “KSSAKXVAAWTLKAAASLYNTVATL [SEQ ID NO:11, PADRE-Gag77-85 fusion peptide]” here?
**A.** 41%

**Q.** What about the “specific recognition (non-specific recognition subtracted)” value ([3]; 25 nmoles with 25 μg ODN 1826 s.c., E:T 20) of the same compound?
**A.** 62%

**Q.** What about the “specific recognition (non-specific recognition subtracted)” value ([3]; 25 nmoles with 25 μg ODN 1826 s.c., E:T 100) of the same compound?
**A.** 49%

**Q.** And the “specific recognition (non-specific recognition subtracted)” value ([3]; 50 nmoles with 25 μg ODN 1826 s.c., E:T 4)?
**A.** 9.3%

**Q.** What about the “specific recognition (non-specific recognition subtracted)” value ([3]; 50 nmoles with 25 μg ODN 1826 s.c., E:T 20) of the same compound?
**A.** 30%

**Q.** What about the “specific recognition (non-specific recognition subtracted)” value ([3]; 50 nmoles with 25 μg ODN 1826 s.c., E:T 100) of the same compound?
**A.** 33%
